One may read the stoichiometry N as a count of units in the complex or per binding partner.

Where “and” joins values, the source holds several entries; their conditions need not be identical. Identical values can stand only once.

Data set [1] has as its target T1, OsJAC1 (Oryza sativa, UniProt Q306J3).
T1 construct: gene JAC1; full length, DIR + JRL domains; N-terminal His6 tag and thrombin site kept; E. coli BL21(DE3), pColdIV
T1 sequence (Q306J3 1-306): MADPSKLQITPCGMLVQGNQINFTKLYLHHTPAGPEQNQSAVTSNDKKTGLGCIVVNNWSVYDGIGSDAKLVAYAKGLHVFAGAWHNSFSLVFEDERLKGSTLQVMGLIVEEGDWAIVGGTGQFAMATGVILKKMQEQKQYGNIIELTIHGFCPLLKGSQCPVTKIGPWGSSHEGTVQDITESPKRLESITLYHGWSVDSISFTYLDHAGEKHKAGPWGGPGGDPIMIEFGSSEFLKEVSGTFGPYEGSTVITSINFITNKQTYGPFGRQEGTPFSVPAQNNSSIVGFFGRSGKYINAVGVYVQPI
Nature of the data set: nano differential scanning fluorimetry. To be noted: 50 mM sugar, 4 mM DTT, 50 mM KPi pH 7.4; TM1 = JRL domain transition. Format: binding. (In general: DSF heats the sample and reads unfolding from a dye or from intrinsic fluorescence.)

The target of a further data set is T2, JRL domain of OsJAC1 (Oryza sativa, UniProt Q306J3).
T2 construct: gene JAC1; isolated jacalin-related lectin domain QCPVTKIGPWGSSHEG...INAVGVYVQPI; N-terminal His6 tag and thrombin site kept; E. coli BL21(DE3), pET15b(+); thermal shifts measured in 1:1 mixture with the isolated DIR domain
T2 sequence (Q306J3 160-306): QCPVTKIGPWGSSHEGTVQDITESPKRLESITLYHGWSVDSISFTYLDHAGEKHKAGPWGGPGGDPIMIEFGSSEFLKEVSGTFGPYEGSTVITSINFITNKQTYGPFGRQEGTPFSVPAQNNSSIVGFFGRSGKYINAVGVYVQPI
Nature of the data set: nano differential scanning fluorimetry. Format: binding. To be noted: 50 mM sugar, 4 mM DTT, 50 mM KPi pH 7.4; 1:1 mixture with DIR domain.

In data set [2] the target is T3, DIR domain of OsJAC1 (Oryza sativa, UniProt Q306J3, T49I).
T3 construct: gene JAC1; isolated dirigent domain SKLQITPCGM...FCPLLKGS; Thr to Ile point mutation (NDKKIGLG); N-terminal His6 tag and thrombin site kept; E. coli BL21(DE3), pET15b(+); dimer/tetramer by SEC
T3 sequence (Q306J3 5-159 T49I): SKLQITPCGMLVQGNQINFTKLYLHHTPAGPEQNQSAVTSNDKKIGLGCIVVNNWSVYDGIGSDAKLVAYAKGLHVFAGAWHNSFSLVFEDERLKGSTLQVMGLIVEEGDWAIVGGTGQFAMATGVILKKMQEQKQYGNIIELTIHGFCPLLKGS
Nature of the data set: nano differential scanning fluorimetry. To be noted: 50 mM sugar, 4 mM DTT, 50 mM KPi pH 7.4. Format: binding.

The target in data set [3] is T1, OsJAC1. The data set is described as follows: nano differential scanning fluorimetry. Format: binding. The note with it: 50 mM sugar, 4 mM DTT, 50 mM KPi pH 7.4, TM2 = DIR domain transition.
For data set [4], the target named is T3, DIR domain of OsJAC1. Nature of the data set: nano differential scanning fluorimetry; near-UV CD. Format: binding. The note with it: 50 mM sugar, 4 mM DTT, 50 mM KPi pH 7.4; CD with 1 mM sugar.
Data set [5] has as its target DIR (dirigent) domain protein of OsJAC1, His6-tagged (Oryza sativa). The data set is described as follows: SEC; HiLoad 16/600 Superdex 200 pg; 50 mM KPi pH 7.4, 300 mM NaCl; 1 mL of 10 mg/mL protein injected, 1 mL/min; apparent masses from calibration proteins. In general terms: Size exclusion chromatography separates by hydrodynamic size, large species first.
Data set [6] deals with the molecule itself. The data set is described as follows: dynamic light scattering; OsJAC1 1.1 mg/mL in 15 mM TRIS-HCl pH 7.4, alone or with 150 mM CaCl2, 50 mM lactose, 150 mM MgSO4 or 4 mM DTT; apparent molecular masses.

Turning to `OC[C@H]1OC(O)[C@@H](O)[C@@H](O)[C@@H]1O` (some centres unmarked) [mannose], the dTM1 on OsJAC1 [1] and on JRL domain of OsJAC1 was 1 K throughout.

Regarding `OC[C@H]1OC(O)[C@H](O)[C@@H](O)[C@H]1O` (some centres unmarked) [galactose], the dTM2 is ~ 3 K on DIR domain of OsJAC1 [2] (printed as up to) and ~ 2 K on OsJAC1 [3] (printed as up to).

For the molecule `OC[C@H]1O[C@@H](O[C@@H]2[C@H](O)[C@@H](O)C(O)O[C@@H]2CO)[C@H](O)[C@@H](O)[C@H]1O` (some centres unmarked) [galactobiose], the dTM2 result at DIR domain of OsJAC1 [4] was “galactobiose (DIR domain) and laminaribiose (JRL domain), caused major shifts in the CD spectra”.

`OC[C@H]1O[C@@H](O[C@H]2[C@H](O)[C@@H](O)C(O)O[C@@H]2CO)[C@H](O)[C@@H](O)[C@H]1O` (some centres unmarked) [lactose]: the dTM2 entry was “(e.g., galactose and lactose) had a positive impact on TM2 of the DIR domain” at DIR domain of OsJAC1 [2]; “(e.g., galactose and lactose) had a positive impact on TM2 of the DIR domain” on OsJAC1 [3].

As for `OC[C@H]1OC(O)[C@H](O)[C@@H](O)[C@@H]1O` (some centres unmarked) [glucose], the dTM1 on OsJAC1 [1] and on JRL domain of OsJAC1 was 1 K in each case.

As for “DIR (dirigent) domain protein of OsJAC1, His6-tagged (domain or fragment)”, in data set [5], the stoichiometry N was 2 and 4.

B1: monocot chimeric jacalin OsJAC1 from Oryza sativa, full-length protein, His6-tagged (natural protein)
chain: T1 sequence (Q306J3 1-306)
notes: OsJAC1 of rice (Oryza sativa), full-length protein; numbers count on: the His6-tagged construct as printed (23 tag and linker residues before M24); no cleavage of the tag is described; also called full-length OsJAC1; chimeric lectin OsJAC1; source: E. coli BL21(DE3), purified (IMAC on Ni-NTA, SEC); not shown: His6, N-terminal, kept
As for B1, the binding result in data set [6] is on record as “binds”.

(Values after article PMC8197871, “Biochemical and Initial Structural Characterization of the Monocot Chimeric Jacalin OsJAC1” (International Journal of Molecular Sciences, 2021).)
